The record followed here is ChEMBL document CHEMBL3351889, “Identification of a novel 2-pyridyl-benzensulfonamide derivative, RQ-00203078, as a selective and orally active TRPM8 antagonist” (Bioorg Med Chem Lett, 2014).

Values after ≈ are worked out from the molar mass of the structure shown.

Data set [1] is described as follows: Intrinsic clearance in human liver microsomes. In kind it is ADME. To be noted: read-out: CLH.
In data set [2] the target is Transient receptor potential cation channel subfamily M member 8 (Homo sapiens, UniProt Q7Z2W7). Kind of data set: Antagonist activity at human TRPM8 expressed in HEK293 cells assessed as inhibition of menthol induced Ca2+ influx. In kind it is cell-based.
Data set [3] is described as follows: Equilibrium solubility of the compound. In kind it is physicochemical.
In a further data set the test system is Rattus norvegicus. Put plainly: Antiallodynic activity in icilin-induced wet-dog shake rat model compound administered po 1 hr prior to icilin challenge measured over 30 mins. In kind it is functional.
A short description of data set [4]: Oral bioavailability in rat at 3 mg/kg. Type of data set: ADME, organism-based. The settings on record: in vivo.
Data set [5] is described as follows: Cmax in rat at 3 mg/kg, po. In kind it is ADME, organism-based. Further details: dose 3 mg/kg, route oral. To be noted: in vivo.
Data set [6] has as its target Transient receptor potential cation channel subfamily A member 1 (Homo sapiens, UniProt O75762). Put plainly: Antagonist activity at human TRPA1 expressed in HEK293 cells assessed as inhibition of AITC-induced Ca2+ influx. In kind it is cell-based.
Data set [7] is described as follows: Fraction unbound in rat plasma. In kind it is ADME, cell-free.
For data set [8], the target named is Transient receptor potential cation channel subfamily M member 8 (Rattus norvegicus, UniProt Q8R455). Put plainly: Antagonist activity at rat TRPM8 assessed as inhibition of menthol induced Ca2+ influx by cell-based assay.
Data set [9] concerns the target Transient receptor potential cation channel subfamily A member 1 (Rattus norvegicus, UniProt Q6RI86). Put plainly: Antagonist activity at rat TRPA1 expressed in HEK293 cells assessed as inhibition of AITC-induced Ca2+ influx. In kind it is cell-based.
In data set [10] the target is Transient receptor potential cation channel subfamily V member 1 (Rattus norvegicus, UniProt O35433). Put plainly: Antagonist activity at rat TRPV1 expressed in HEK293 cells assessed as inhibition of capsaicin-induced Ca2+ influx. In kind it is cell-based.
Data set [11] is described as follows: Intrinsic clearance in rat liver microsomes. Type of data set: ADME. To be noted: read-out: CLH.
For data set [12], the target named is Transient receptor potential cation channel subfamily V member 4 (Homo sapiens, UniProt Q9HBA0). Kind of data set: Antagonist activity at human TRPV4 expressed in HEK293 cells assessed as inhibition of hypotonic solution-induced Ca2+ influx. Type of data set: cell-based.
The target in data set [13] is Transient receptor potential cation channel subfamily V member 1 (Homo sapiens, UniProt Q8NER1). Put plainly: Antagonist activity at human TRPV1 expressed in HEK293 cells assessed as inhibition of capsaicin-induced Ca2+ influx. Type of data set: cell-based.

Usually IC50 stands for the concentration at which inhibition is half-maximal. One may read the solubility (thermodynamic) as solubility found after equilibrating the solid with the medium. In general, ED50 refers to the midpoint of the dose-response relation. The term bioavailability denotes dose-corrected exposure relative to a reference, in per cent. Low readings indicate poor availability, high ones good availability. In general, Cmax refers to the highest concentration seen after dosing. One may read the fraction unbound as free concentration divided by total concentration. Low values mean little free substance, high ones much free substance.

Chain of Transient receptor potential cation channel subfamily M member 8 (Homo sapiens, UniProt Q7Z2W7) (Q7Z2W7 whole entry): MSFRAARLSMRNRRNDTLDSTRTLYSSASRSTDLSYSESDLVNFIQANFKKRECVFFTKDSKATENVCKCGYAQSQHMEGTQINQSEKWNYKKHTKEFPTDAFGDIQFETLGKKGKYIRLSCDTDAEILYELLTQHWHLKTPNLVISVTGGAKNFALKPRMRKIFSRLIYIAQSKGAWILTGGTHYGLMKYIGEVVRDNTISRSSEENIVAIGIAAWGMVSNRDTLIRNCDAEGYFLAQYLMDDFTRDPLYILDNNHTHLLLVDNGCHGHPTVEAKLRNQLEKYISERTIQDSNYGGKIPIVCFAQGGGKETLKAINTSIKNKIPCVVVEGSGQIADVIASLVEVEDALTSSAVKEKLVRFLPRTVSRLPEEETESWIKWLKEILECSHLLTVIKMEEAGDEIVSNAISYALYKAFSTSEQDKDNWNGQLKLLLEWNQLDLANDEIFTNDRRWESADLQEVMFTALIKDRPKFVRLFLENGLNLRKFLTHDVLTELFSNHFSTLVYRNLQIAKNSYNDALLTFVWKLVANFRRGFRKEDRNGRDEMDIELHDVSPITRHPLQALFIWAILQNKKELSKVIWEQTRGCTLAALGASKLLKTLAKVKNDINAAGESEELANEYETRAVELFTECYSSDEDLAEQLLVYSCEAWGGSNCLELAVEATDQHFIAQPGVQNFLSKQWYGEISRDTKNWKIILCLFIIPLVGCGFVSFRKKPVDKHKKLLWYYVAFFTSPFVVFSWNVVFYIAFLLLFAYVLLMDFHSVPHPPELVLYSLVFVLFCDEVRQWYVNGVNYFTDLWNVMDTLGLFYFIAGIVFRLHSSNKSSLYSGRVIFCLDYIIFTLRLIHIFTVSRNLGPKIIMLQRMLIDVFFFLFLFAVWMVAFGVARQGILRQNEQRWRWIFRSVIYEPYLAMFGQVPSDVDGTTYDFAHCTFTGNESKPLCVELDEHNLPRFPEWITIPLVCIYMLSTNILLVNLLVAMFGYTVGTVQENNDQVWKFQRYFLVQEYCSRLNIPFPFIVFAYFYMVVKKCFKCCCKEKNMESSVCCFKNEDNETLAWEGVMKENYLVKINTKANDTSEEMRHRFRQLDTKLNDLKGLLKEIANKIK
Chain of Transient receptor potential cation channel subfamily M member 8 (Rattus norvegicus, UniProt Q8R455) (Q8R455 whole entry): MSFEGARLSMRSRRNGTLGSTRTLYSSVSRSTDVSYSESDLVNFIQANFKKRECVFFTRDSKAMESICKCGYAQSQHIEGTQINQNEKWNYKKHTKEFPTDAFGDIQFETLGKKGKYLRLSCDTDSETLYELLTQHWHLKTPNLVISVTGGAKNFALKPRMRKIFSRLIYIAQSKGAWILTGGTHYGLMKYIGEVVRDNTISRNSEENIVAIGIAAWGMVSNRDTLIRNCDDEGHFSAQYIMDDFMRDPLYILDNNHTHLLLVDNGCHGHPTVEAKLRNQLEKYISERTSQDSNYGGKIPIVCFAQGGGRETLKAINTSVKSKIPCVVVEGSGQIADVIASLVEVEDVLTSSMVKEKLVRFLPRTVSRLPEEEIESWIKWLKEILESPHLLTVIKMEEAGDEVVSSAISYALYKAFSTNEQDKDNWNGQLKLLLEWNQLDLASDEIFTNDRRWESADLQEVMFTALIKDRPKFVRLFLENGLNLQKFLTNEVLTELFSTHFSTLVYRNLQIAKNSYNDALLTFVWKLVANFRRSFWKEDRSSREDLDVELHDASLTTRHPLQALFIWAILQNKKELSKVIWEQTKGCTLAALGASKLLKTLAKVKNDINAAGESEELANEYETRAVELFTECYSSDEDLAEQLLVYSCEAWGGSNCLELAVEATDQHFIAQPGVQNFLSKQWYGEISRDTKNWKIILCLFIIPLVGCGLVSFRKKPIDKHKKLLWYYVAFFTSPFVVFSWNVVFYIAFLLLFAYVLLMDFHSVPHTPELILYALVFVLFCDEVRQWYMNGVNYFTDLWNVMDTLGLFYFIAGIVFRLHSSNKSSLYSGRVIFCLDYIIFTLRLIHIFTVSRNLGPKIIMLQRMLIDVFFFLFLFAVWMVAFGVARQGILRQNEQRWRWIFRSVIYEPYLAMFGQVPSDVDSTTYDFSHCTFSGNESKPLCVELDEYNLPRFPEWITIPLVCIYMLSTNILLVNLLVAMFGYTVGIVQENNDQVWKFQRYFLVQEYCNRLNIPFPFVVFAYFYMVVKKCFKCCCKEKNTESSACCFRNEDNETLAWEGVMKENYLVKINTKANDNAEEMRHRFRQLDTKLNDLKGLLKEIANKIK
Chain of Transient receptor potential cation channel subfamily A member 1 (Rattus norvegicus, UniProt Q6RI86) (Q6RI86 whole entry): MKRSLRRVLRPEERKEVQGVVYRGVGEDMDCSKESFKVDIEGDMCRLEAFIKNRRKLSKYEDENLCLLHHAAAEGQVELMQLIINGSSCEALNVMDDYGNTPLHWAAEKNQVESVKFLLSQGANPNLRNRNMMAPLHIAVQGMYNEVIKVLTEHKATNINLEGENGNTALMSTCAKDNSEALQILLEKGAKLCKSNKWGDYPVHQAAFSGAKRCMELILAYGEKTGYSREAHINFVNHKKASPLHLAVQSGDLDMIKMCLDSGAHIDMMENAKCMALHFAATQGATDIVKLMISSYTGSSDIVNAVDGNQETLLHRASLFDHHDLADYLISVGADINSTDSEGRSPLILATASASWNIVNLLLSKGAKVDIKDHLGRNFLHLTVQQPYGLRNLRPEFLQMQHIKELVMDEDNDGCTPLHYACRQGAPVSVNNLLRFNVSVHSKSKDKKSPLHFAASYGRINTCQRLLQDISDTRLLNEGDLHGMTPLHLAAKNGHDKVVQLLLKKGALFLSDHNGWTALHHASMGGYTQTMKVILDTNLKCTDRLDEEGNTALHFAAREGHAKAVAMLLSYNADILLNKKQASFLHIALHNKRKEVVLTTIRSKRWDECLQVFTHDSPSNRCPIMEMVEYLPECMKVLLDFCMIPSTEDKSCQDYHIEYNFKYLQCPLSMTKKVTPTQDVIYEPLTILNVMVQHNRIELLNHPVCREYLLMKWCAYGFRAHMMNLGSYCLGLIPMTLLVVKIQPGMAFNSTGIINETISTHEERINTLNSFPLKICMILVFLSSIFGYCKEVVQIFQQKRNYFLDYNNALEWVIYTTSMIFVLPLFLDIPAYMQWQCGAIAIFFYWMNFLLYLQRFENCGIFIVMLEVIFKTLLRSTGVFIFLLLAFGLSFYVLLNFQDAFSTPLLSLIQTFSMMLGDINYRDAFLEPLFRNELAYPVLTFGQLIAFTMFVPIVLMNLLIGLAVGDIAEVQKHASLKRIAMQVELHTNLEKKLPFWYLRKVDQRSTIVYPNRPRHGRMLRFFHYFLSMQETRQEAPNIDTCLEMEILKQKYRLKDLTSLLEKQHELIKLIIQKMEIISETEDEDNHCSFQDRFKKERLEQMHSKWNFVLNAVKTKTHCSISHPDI
Chain of Transient receptor potential cation channel subfamily V member 1 (Rattus norvegicus, UniProt O35433) (O35433 whole entry, looked up): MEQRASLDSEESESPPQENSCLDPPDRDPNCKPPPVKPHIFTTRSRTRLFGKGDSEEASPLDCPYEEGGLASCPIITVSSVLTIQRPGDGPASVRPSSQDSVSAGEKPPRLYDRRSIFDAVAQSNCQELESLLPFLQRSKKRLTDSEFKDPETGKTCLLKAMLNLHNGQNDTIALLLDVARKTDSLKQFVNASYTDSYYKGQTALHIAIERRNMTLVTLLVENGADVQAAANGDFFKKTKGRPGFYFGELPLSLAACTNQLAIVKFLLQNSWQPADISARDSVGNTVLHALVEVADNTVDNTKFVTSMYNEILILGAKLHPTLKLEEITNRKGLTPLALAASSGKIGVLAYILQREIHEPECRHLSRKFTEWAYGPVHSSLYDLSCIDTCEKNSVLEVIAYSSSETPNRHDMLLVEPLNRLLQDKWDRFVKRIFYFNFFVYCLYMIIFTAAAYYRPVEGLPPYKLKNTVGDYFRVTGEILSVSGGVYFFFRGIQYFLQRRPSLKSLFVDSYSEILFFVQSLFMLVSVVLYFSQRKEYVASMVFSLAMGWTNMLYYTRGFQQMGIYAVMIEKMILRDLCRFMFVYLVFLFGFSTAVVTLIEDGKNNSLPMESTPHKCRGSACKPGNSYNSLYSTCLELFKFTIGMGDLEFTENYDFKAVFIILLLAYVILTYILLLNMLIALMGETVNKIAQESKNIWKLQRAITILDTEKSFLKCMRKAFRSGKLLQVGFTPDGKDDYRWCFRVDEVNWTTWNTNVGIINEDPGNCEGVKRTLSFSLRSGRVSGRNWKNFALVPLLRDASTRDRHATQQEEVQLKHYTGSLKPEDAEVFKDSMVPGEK
Chain of Transient receptor potential cation channel subfamily V member 1 (Homo sapiens, UniProt Q8NER1) (Q8NER1 whole entry, looked up): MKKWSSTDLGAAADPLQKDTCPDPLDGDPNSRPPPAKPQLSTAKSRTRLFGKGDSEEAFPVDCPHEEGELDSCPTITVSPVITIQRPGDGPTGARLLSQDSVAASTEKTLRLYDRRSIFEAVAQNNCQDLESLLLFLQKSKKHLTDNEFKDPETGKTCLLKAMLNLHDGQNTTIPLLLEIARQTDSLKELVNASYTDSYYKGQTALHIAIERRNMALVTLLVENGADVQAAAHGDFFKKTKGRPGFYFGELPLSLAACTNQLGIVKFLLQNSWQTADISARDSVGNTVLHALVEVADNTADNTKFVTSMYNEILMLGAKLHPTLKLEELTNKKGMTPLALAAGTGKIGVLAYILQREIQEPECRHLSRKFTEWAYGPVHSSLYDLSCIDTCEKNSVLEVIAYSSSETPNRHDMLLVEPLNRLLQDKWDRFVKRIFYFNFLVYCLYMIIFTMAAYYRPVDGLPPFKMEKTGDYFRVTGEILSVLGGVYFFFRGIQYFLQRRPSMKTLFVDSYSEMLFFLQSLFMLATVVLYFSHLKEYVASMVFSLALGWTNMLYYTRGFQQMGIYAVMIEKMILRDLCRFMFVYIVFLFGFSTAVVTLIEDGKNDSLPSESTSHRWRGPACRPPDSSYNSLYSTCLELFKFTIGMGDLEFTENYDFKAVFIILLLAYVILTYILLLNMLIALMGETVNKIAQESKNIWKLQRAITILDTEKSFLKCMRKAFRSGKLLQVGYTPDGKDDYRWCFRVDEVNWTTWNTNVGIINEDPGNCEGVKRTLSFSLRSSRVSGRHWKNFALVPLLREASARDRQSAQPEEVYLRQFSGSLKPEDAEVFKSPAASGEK

On to `O=C(O)c1ccc(S(=O)(=O)N(Cc2ccccc2)c2ncc(C(F)(F)F)cc2Cl)cc1`, for which the CLint scaled in data set [1] was less than 7 mL/min/kg. In [2], the IC50 amounted to 61 nM. This compound also came in with a thermodynamic solubility in data set [3] of 185 µM (≈ 87.1 µg/mL).
Regarding `O=S(=O)(c1ccc(CO)cc1)N(Cc1ccccc1)c1ncc(C(F)(F)F)cc1Cl`, the CLint scaled in data set [1] was greater than 168 mL/min/kg. Moreover, the IC50 in data set [2] came out at 42 nM. Besides, the thermodynamic solubility in data set [3] is 35 µM (≈ 16 µg/mL).
The corresponding values for `CN(C)C(=O)c1ccc(S(=O)(=O)N(Cc2ccccc2)c2ncc(C(F)(F)F)cc2Cl)cc1` are greater than 168 mL/min/kg, 67 nM and 37 µM (≈ 18.4 µg/mL).
For the compound `O=C(O)c1ccc(S(=O)(=O)N(Cc2ccccc2)c2ncccc2Cl)cc1`, the half-maximal inhibitory concentration (IC50) in data set [2] amounted to 9860 nM.
As to `Cc1cc(C(F)(F)F)cnc1N(Cc1ccccc1)S(=O)(=O)c1ccc(C(=O)O)cc1`, the IC50 in [2] was found to be 736 nM.
In the case of `N#Cc1cc(C(F)(F)F)cnc1N(Cc1ccccc1)S(=O)(=O)c1ccc(C(=O)O)cc1`, in data set [2], the IC50 stood at 2470 nM.
With `O=C(O)c1ccc(S(=O)(=O)N(CCc2ccccc2)c2ncc(C(F)(F)F)cc2Cl)cc1`, the half-inhibitory concentration (IC50) in [2] was 762 nM.
As to `O=C(O)c1ccc(S(=O)(=O)N(CCCc2ccccc2)c2ncc(C(F)(F)F)cc2Cl)cc1`, the CLint scaled in data set [1] worked out at 81 mL/min/kg. In [2], the 50% inhibitory concentration (IC50) is 49 nM.
In the case of `O=C(O)c1ccc(S(=O)(=O)N(CCN2CCOCC2)c2ncc(C(F)(F)F)cc2Cl)cc1`, the CLint scaled in data set [1] is less than 7 mL/min/kg. The half-inhibitory concentration (IC50) in data set [2] was determined as 3720 nM.
In the case of `O=C(O)c1ccc(S(=O)(=O)N(Cc2cccc(C(F)(F)F)c2)c2ncc(C(F)(F)F)cc2Cl)cc1`, the CLint scaled in data set [1] is less than 7 mL/min/kg. In data set [2], the IC50 was found to be 41 nM.
With `O=C(O)c1ccc(S(=O)(=O)N(Cc2ccccc2OC(F)(F)F)c2ncc(C(F)(F)F)cc2Cl)cc1`, the CLint scaled in data set [1] was less than 7 mL/min/kg. In data set [2], the concentration for half-maximal inhibition (IC50) came to 96 nM.
As to `O=C(O)c1ccc(S(=O)(=O)N(Cc2ccc(OC(F)(F)F)cc2)c2ncc(C(F)(F)F)cc2Cl)cc1`, it took a dose of 0.65 mg/kg to reach the 50% effect level in the data set on Rattus norvegicus (ED50). In addition, the CLint scaled in data set [1] was less than 7 mL/min/kg; in data set [11], less than 10.4 mL/min/kg. Moreover, the bioavailability in data set [4] was determined as 86%. Further, the Cmax in data set [5] amounted to 2300 ng/mL. For the same compound, the IC50 was greater than 10 µM in data set [6]; 5.8 nM in [8]; 8.3 nM in data set [2]; greater than 10 µM in data set [9]; greater than 3 µM in [10]; greater than 3 µM in [12]. Further, the IC50 in [13] was greater than 10 µM. Further, in data set [7], the free fraction (fraction unbound) is 0.0031.
Consider `O=C(O)c1ccc(S(=O)(=O)N(Cc2ccc(C(F)(F)F)cc2)c2ncc(Cl)cc2Cl)cc1`, for which the median effective dose (ED50) in the data set on Rattus norvegicus worked out at 1.3 mg/kg. In addition, the CLint scaled in [1] was less than 7 mL/min/kg; in data set [11] it was less than 10.4 mL/min/kg. In addition, in data set [7], the unbound share (fraction unbound) turned out to be 0.011. Moreover, the IC50 is 9 nM in data set [8] and 11 nM in data set [2].
For the compound `Cc1c(N(Cc2ccc(C(F)(F)F)c(F)c2)S(=O)(=O)c2ccc(C(=O)O)cc2)sc2ccccc12`, in data set [1], the CLint scaled came to 8.5 mL/min/kg. Moreover, the half-inhibitory concentration (IC50) in [2] was 6.2 nM.
